Test results as given in PubChem BioAssay (NCI).
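Method: 48-hour compound exposure of cells in 96-well plates, five concentrations, linear interpolation of endpoints. TGI marks complete inhibition of growth.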

Assays:
Experiment in all cases: NCI tumour cell line growth inhibition, 48 h
HCT-15 colon = system: HCT-15 colon
DU-145 prostate = system: DU-145 prostate
SK-OV-3 ovarian = system: SK-OV-3 ovarian
SK-MEL-28 melanoma = system: SK-MEL-28 melanoma
LOX IMVI melanoma = system: LOX IMVI melanoma
OVCAR-5 ovarian = system: OVCAR-5 ovarian
NCI-H226 lung = system: NCI-H226 lung
COLO 205 colon = system: COLO 205 colon
HOP-62 NSCLC = system: HOP-62 NSCLC
MOLT-4 leukemia = system: MOLT-4 leukemia

CC(C)(C)n1c(=O)n2c(-c3ccccc3)c(-c3ccccc3)n2c1=O
TGI (HCT-15 colon): > 100 µM | TGI (DU-145 prostate): > 100 µM | TGI (SK-OV-3 ovarian): > 100 µM | TGI (SK-MEL-28 melanoma): > 100 µM | TGI (LOX IMVI melanoma): > 100 µM | TGI (OVCAR-5 ovarian): > 100 µM | TGI (NCI-H226 lung): > 100 µM | TGI (COLO 205 colon): > 100 µM

COc1ccc(OC/C(N)=N/NC(=O)c2ccncc2)cc1
TGI (HCT-15 colon): > 100 µM | TGI (DU-145 prostate): > 100 µM | TGI (SK-OV-3 ovarian): > 100 µM | TGI (SK-MEL-28 melanoma): > 100 µM | TGI (LOX IMVI melanoma): > 100 µM | TGI (OVCAR-5 ovarian): > 100 µM | TGI (HOP-62 NSCLC): > 100 µM | TGI (MOLT-4 leukemia): > 100 µM | TGI (COLO 205 colon): > 100 µM

CCOC(=O)c1cn(-c2ccc([N+](=O)[O-])cc2)c(=S)n2c1nc1ccccc12
TGI (HCT-15 colon): > 100 µM | TGI (DU-145 prostate): > 100 µM | TGI (SK-MEL-28 melanoma): > 100 µM | TGI (LOX IMVI melanoma): > 100 µM | TGI (OVCAR-5 ovarian): > 100 µM | TGI (HOP-62 NSCLC): > 100 µM | TGI (NCI-H226 lung): > 100 µM | TGI (MOLT-4 leukemia): 75.7 µM | TGI (COLO 205 colon): 48.5 µM

CN(/N=C/c1ccccn1)C1=NCCN1
TGI (HCT-15 colon): > 100 µM | TGI (SK-OV-3 ovarian): > 100 µM | TGI (SK-MEL-28 melanoma): > 100 µM | TGI (LOX IMVI melanoma): > 100 µM | TGI (OVCAR-5 ovarian): > 100 µM | TGI (HOP-62 NSCLC): > 100 µM | TGI (NCI-H226 lung): > 100 µM | TGI (MOLT-4 leukemia): > 100 µM | TGI (COLO 205 colon): > 100 µM

CC(C)(C)C1CC[C@H]2c3c([nH]c4ccccc34)[C@H]3C(=O)N(c4ccc(F)cc4)C(=O)[C@H]3[C@H]2C1 (stereo partly drawn)
TGI (HCT-15 colon): > 100 µM | TGI (SK-OV-3 ovarian): 32 µM | TGI (SK-MEL-28 melanoma): 46.5 µM | TGI (LOX IMVI melanoma): 35.2 µM | TGI (OVCAR-5 ovarian): 80 µM | TGI (HOP-62 NSCLC): 30.8 µM | TGI (NCI-H226 lung): 35.3 µM | TGI (MOLT-4 leukemia): 27.8 µM | TGI (COLO 205 colon): 30.4 µM

Clc1ccc(C(OCn2ccnc2)c2nc3ccccc3[nH]2)c(Cl)c1 (stereo not drawn)
TGI (HCT-15 colon): > 100 µM | TGI (DU-145 prostate): > 100 µM | TGI (SK-MEL-28 melanoma): > 100 µM | TGI (LOX IMVI melanoma): > 100 µM | TGI (OVCAR-5 ovarian): > 100 µM | TGI (HOP-62 NSCLC): > 100 µM | TGI (MOLT-4 leukemia): > 100 µM | TGI (COLO 205 colon): > 100 µM

COc1cc(CCN)c(OC)c(OC)c1
TGI (HCT-15 colon): > 100 µM | TGI (DU-145 prostate): > 100 µM | TGI (SK-OV-3 ovarian): > 100 µM | TGI (SK-MEL-28 melanoma): > 100 µM | TGI (LOX IMVI melanoma): > 100 µM | TGI (OVCAR-5 ovarian): > 100 µM | TGI (HOP-62 NSCLC): > 100 µM | TGI (MOLT-4 leukemia): > 100 µM | TGI (COLO 205 colon): > 100 µM

COC(=O)[C@@H]1Cc2ccc(OC)c(c2)OCCC(=O)N1
TGI (HCT-15 colon): > 100 µM | TGI (DU-145 prostate): > 100 µM | TGI (SK-OV-3 ovarian): > 100 µM | TGI (SK-MEL-28 melanoma): > 100 µM | TGI (OVCAR-5 ovarian): > 100 µM | TGI (HOP-62 NSCLC): > 100 µM | TGI (NCI-H226 lung): > 100 µM | TGI (MOLT-4 leukemia): > 100 µM | TGI (COLO 205 colon): > 100 µM

Cc1csc(=Nc2ccccc2)n1CCC(O)(P(=O)(O)O)P(=O)(O)O
TGI (HCT-15 colon): > 100 µM | TGI (DU-145 prostate): > 100 µM | TGI (SK-OV-3 ovarian): > 100 µM | TGI (LOX IMVI melanoma): > 100 µM | TGI (OVCAR-5 ovarian): > 100 µM | TGI (HOP-62 NSCLC): > 100 µM | TGI (NCI-H226 lung): > 100 µM | TGI (COLO 205 colon): > 100 µM

COC(=O)C1(CCCCl)CCCN1C(=O)OC(C)(C)C (stereo not drawn)
TGI (HCT-15 colon): > 100 µM | TGI (DU-145 prostate): > 100 µM | TGI (SK-OV-3 ovarian): > 100 µM | TGI (SK-MEL-28 melanoma): > 100 µM | TGI (LOX IMVI melanoma): > 100 µM | TGI (OVCAR-5 ovarian): > 100 µM | TGI (HOP-62 NSCLC): > 100 µM | TGI (NCI-H226 lung): > 100 µM | TGI (COLO 205 colon): > 100 µM

CC(=O)Nc1nc2c(=O)c3ccccc3sc2s1
TGI (HCT-15 colon): > 100 µM | TGI (DU-145 prostate): > 100 µM | TGI (OVCAR-5 ovarian): > 100 µM | TGI (HOP-62 NSCLC): > 100 µM | TGI (NCI-H226 lung): > 100 µM | TGI (MOLT-4 leukemia): > 100 µM | TGI (COLO 205 colon): > 100 µM

CCCCCCC1OC23OC1CCC2C(O)CCC3O (stereo not drawn)
TGI (HCT-15 colon): > 100 µM | TGI (DU-145 prostate): > 100 µM | TGI (SK-MEL-28 melanoma): > 100 µM | TGI (LOX IMVI melanoma): > 100 µM | TGI (OVCAR-5 ovarian): > 100 µM | TGI (HOP-62 NSCLC): > 100 µM | TGI (NCI-H226 lung): > 100 µM | TGI (MOLT-4 leukemia): > 100 µM | TGI (COLO 205 colon): > 100 µM
